From US10316028B2, “Orexin receptor antagonists” (Heptares Therapeutics Limited, priority 2012, dated 2019)

What follows are molecules tested against T1, human Orexin-2 receptor (Homo sapiens, UniProt O43614) (assay: 3H-EMPA radioligand binding assay). Conditions: 3H-EMPA displacement, membranes of HEK293 cells transfected with human Orexin-2 receptor; KI by Cheng-Prussoff; read-out: OX2 pKi ave (converted).
T1 construct: expressed in transfected cells; host or cells: HEK293 cells (transient transfection, Genejuice); membranes
T1 sequence (O43614 1-444): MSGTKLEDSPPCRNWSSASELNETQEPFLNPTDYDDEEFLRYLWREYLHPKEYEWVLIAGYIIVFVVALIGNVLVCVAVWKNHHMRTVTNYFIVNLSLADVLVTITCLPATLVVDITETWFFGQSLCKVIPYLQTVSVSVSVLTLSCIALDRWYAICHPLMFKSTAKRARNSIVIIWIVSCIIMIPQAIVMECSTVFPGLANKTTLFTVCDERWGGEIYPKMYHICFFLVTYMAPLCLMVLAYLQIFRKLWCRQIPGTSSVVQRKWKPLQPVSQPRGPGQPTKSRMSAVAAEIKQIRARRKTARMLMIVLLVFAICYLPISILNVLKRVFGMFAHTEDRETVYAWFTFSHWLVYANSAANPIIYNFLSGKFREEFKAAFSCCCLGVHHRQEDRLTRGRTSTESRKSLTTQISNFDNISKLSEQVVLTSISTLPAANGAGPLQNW
Description: cDNA encoding the human Orexin-2 receptor was transfected into HEK293 cells using the transfection reagent Genejuice (Novagen). Forty-eight hours after transfection, cells were harvested and washed twice with ice cold phosphate-buffered saline. The pellet was resuspended in ice-cold buffer containing 20 mM Tris-HCl, pH 7.4, 1 mM EDTA and homogenised with an Ultraturax for 30 s at maximum speed. After centrifugation at 48,000 g for 30 min at 4° C., the pellet was resuspended and spun again. The final pellet was resuspended and frozen at −80° C. before use. Protein concentration was determined using the BCA protein assay method.
^3H-EMPA Radioligand Binding Assay
At the end of the incubation, membranes were filtered onto a unifilter, a 96-well white microplate with bonded GF/B filter pre-incubated with 0.5% polyethylenimine, with a Tomtec cell harvester and washed 4 times with distilled water. […] Radioactivity on the filter was counted (1 min) on a microbeta counter after addition of 50 µL of scintillation fluid. […] IC50 values were derived from the inhibition curve and the equilibrium dissociation constant (KI) values were calculated using the Cheng-Prussoff equation.
With `Cc1ccc(N2C(=O)N(Cc3c(F)cccc3Cl)c3ccccc3S2(=O)=O)cc1` [Example 28, 4-(2-chloro-6-fluorobenzyl)-2-(4-methylphenyl)-2H-1,2,4-benzothiadiazin-3(4H)-one 1,1-dioxide] the Ki was 5.62 nM. `CCOc1ccc(N2C(=O)N(Cc3c(F)cccc3Cl)c3ccccc3S2(=O)=O)cc1` [Example 29, 4-(2-chloro-6-fluorobenzyl)-2-(4-ethoxyphenyl)-2H-1,2,4-benzothiadiazin-3(4H)-one 1,1-dioxide] showed a Ki of 31.6 nM. For `CC(=O)c1ccc(N2C(=O)N(Cc3c(F)cccc3Cl)c3ccccc3S2(=O)=O)cc1` [Example 30, 2-(4-acetylphenyl)-4-(2-chloro-6-fluorobenzyl)-2H-1,2,4-benzothiadiazin-3(4H)-one 1,1-dioxide], the Ki was 20 nM. `Cc1cccc(N2C(=O)N(Cc3c(F)cccc3Cl)c3ccccc3S2(=O)=O)c1` [Example 31, 4-(2-chloro-6-fluorobenzyl)-2-(3-methylphenyl)-2H-1,2,4-benzothiadiazin-3(4H)-one 1,1-dioxide] gave a Ki of 10.5 nM. For `Cc1ccc(C)c(N2C(=O)N(Cc3c(F)cccc3Cl)c3ccccc3S2(=O)=O)c1` [Example 32, 4-(2-chloro-6-fluorobenzyl)-2-(2,5-dimethylphenyl)-2H-1,2,4-benzothiadiazin-3(4H)-one 1,1-dioxide], the Ki was 28.2 nM. Work on `CCc1ccccc1N1C(=O)N(Cc2c(F)cccc2Cl)c2ccccc2S1(=O)=O` [Example 33, 4-(2-chloro-6-fluorobenzyl)-2-(2-ethylphenyl)-2H-1,2,4-benzothiadiazin-3(4H)-one 1,1-dioxide] yielded a Ki of 28.2 nM. For `Cc1ccc(N2C(=O)N(Cc3c(F)cccc3Cl)c3ccccc3S2(=O)=O)cc1C` [Example 34, 4-(2-chloro-6-nuorobenzyl)-2-(3,4-dimethylphenyl)-2H-1,2,4-benzothiadiazin-3(4H)-one 1,1-dioxide], the Ki was 1.12 nM. Molecule `COc1ccccc1N1C(=O)N(Cc2c(F)cccc2Cl)c2ccccc2S1(=O)=O` [Example 35, 4-(2-chloro-6-fluorobenzyl)-2-(2-methoxyphenyl)-2H-1,2,4-benzothiadiazin-3(4H)-one 1,1-dioxide] has a Ki of 31.6 nM. For `COc1cccc(N2C(=O)N(Cc3c(F)cccc3Cl)c3ccccc3S2(=O)=O)c1` [Example 36, 4-(2-chloro-6-fluorobenzyl)-2-(3-methoxyphenyl)-2H-1,2,4-benzothiadiazin-3(4H)-one 1,1-dioxide], the Ki was 15.8 nM. Molecule `CCc1ccc(N2C(=O)N(Cc3c(F)cccc3Cl)c3ccccc3S2(=O)=O)cc1` [Example 37, 4-(2-chloro-6-fluorobenzyl)-2-(4-ethylphenyl)-2H-1,2,4-benzothiadiazin-3(4H)-one 1,1-dioxide] has a Ki of 5.01 nM. `Cc1cccc(N2C(=O)N(Cc3c(F)cccc3Cl)c3ccccc3S2(=O)=O)c1C` [Example 38, 4-(2-chloro-6-fluorobenzyl)-2-(2,3-dimethylphenyl)-2H-1,2,4-benzothiadiazin-3(4H)-one 1,1-dioxide] was tested, and the Ki was 15.8 nM. `O=C1N(Cc2c(F)cccc2Cl)c2ccccc2S(=O)(=O)N1Cc1ccc(F)cc1` [Example 39, 4-(2-chloro-6-fluorobenzyl)-2-(4-fluorobenzyl)-2H-1,2,4-benzothiadiazin-3(4H)-one 1,1-dioxide] was tested, and the Ki was 20 nM. `O=C1N(Cc2c(F)cccc2Cl)c2ccccc2S(=O)(=O)N1Cc1ccccc1` [Example 40, 2-benzyl-4-(2-chloro-6-fluorobenzyl)-2H-1,2,4-benzothiadiazin-3(4H)-one 1,1-dioxide] showed a Ki of 26.3 nM. In the case of `Cc1ccc(Cl)cc1N1C(=O)N(Cc2c(F)cccc2Cl)c2ccccc2S1(=O)=O` [Example 41, 4-(2-chloro-6-fluorobenzyl)-2-(5-chloro-2-methylphenyl)-2H-1,2,4-benzothiadiazin-3(4H)-one 1,1-dioxide], the Ki is reported as 25.1 nM. With `O=C1N(Cc2c(F)cccc2Cl)c2ccccc2S(=O)(=O)N1c1cccc(Cl)c1` [Example 42, 4-(2-chloro-6-fluorobenzyl)-2-(3-chlorophenyl)-2H-1,2,4-benzothiadiazin-3(4H)-one 1,1-dioxide] the Ki was 14.1 nM. `Cc1ccc(N2C(=O)N(Cc3c(F)cccc3Cl)c3ccccc3S2(=O)=O)cc1F` [Example 43, 4-(2-chloro-6-fluorobenzyl)-2-(3-fluoro-4-methylphenyl)-2H-1,2,4-benzothiadiazin-3(4H)-one 1,1-dioxide] showed a Ki of 4.68 nM. `O=C1N(Cc2c(F)cccc2Cl)c2ccccc2S(=O)(=O)N1c1ccc(F)cc1` [Example 44, 4-(2-chloro-6-fluorobenzyl)-2-(4-fluorophenyl)-2H-1,2,4-benzothiadiazin-3(4H)-one 1,1-dioxide] showed a Ki of 31.6 nM. `Cc1ccc(N2C(=O)N(Cc3c(F)cccc3Cl)c3ccccc3S2(=O)=O)c(C)c1` [Example 45, 4-(2-chloro-6-fluorobenzyl)-2-(2,4-dimethylphenyl)-2H-1,2,4-benzothiadiazin-3(4H)-one 1,1-dioxide] gave a Ki of 16.6 nM. `O=C1N(Cc2c(F)cccc2Cl)c2ccccc2S(=O)(=O)N1c1cc(F)ccc1F` [Example 46, 4-(2-chloro-6-fluorobenzyl)-2-(2,5-difluorophenyl)-2H-1,2,4-benzothiadiazin-3(4H)-one 1,1-dioxide] showed a Ki of 63.1 nM. With `CCc1cccc(N2C(=O)N(Cc3c(F)cccc3Cl)c3ccccc3S2(=O)=O)c1` [Example 47, 4-(2-chloro-6-fluorobenzyl)-2-(3-ethylphenyl)-2H-1,2,4-benzothiadiazin-3(4H)-one 1,1-dioxide] the Ki was 2.51 nM. For `CC(C)c1ccc(N2C(=O)N(Cc3c(F)cccc3Cl)c3ccccc3S2(=O)=O)cc1` [Example 48, 4-(2-chloro-6-fluorobenzyl)-2-[4-(propan-2-yl)phenyl]-2H-1,2,4-benzothiadiazin-3(4H)-one 1,1-dioxide], the Ki was 3.72 nM. For `CSc1cccc(N2C(=O)N(Cc3c(F)cccc3Cl)c3ccccc3S2(=O)=O)c1` [Example 49, 4-(2-chloro-6-fluorobenzyl)-2-[3-(methylsulfanyl)phenyl]-2H-1,2,4-benzothiadiazin-3(4H)-one 1,1-dioxide], the Ki was 1.05 nM. In the case of `CSc1cccc(N2C(=O)N(Cc3ccc(F)cc3Cl)c3ccccc3S2(=O)=O)c1` [Example 50, 4-(2-chloro-4-fluorobenzyl)-2-[3-(methylsulfanyl)phenyl]-2H-1,2,4-benzothiadiazin-3(4H)-one 1,1-dioxide], the Ki is reported as 35.5 nM. With `CSc1cccc(N2C(=O)N(Cc3cc(C)ccc3C)c3ccccc3S2(=O)=O)c1` [Example 51, 4-(2,5-dimethylbenzyl)-2-[3-(methylsulfanyl)phenyl]-2H-1,2,4-benzothiadiazin-3(4H)-one 1,1-dioxide] the Ki was 17.8 nM. For `COC(=O)c1ccc(OC)c(CN2C(=O)N(c3cccc(SC)c3)S(=O)(=O)c3ccccc32)c1` [Example 52, methyl 3-({2-[3-(methylsulfanyl)phenyl]-1,1-dioxido-3-oxo-2,3-dihydro-4H-1,2,4-benzothiadiazin-4-yl}methyl)-4-methoxybenzoate], the Ki was 2.63 nM. Work on `Cc1ccc(N2C(=O)N(Cc3ccccc3F)c3ccccc3S2(=O)=O)cc1Cl` [Example 53, 4-(2-fluorobenzyl)-2-(3-chloro-4-methylphenyl)-2H-1,2,4-benzothiadiazin-3(4H)-one 1,1-dioxide] yielded a Ki of 31.6 nM. Work on `Cc1ccc(N2C(=O)N(Cc3ccccc3C)c3ccccc3S2(=O)=O)cc1Cl` [Example 54, 4-(2-methylbenzyl)-2-(3-chloro-4-methylphenyl)-2H-1,2,4-benzothiadiazin-3(4H)-one 1,1-dioxide] yielded a Ki of 43.7 nM.
